The values below come from ChEMBL document CHEMBL4043123, “α-Geminal disubstituted pyrrolidine iminosugars and their C-4-fluoro analogues: Synthesis, glycosidase inhibition and molecular docking studies” (Bioorg Med Chem, 2017).

Structures are written as SMILES. Activity calls are given as the source filed them. The calls are words filed in the database; no cut-off is given here.

Test [1] deals with Escherichia coli. The test can be described thus: Inhibition of Escherichia coli beta-galactosidase at 1 mM pre-incubated for 1 hr followed by p-nitrophenyl-beta-D-galactopyranoside substrate addition by fluorescence detection based assay.
Test [2] addresses Alpha-galactosidase (Coffea arabica) (UniProt Q42656). As to the kind of experiment: Inhibition of coffee beans alpha-galactosidase at 1 mM pre-incubated for 1 hr followed by p-nitrophenyl-alpha-D-galactopyranoside substrate addition by fluorescence detection based assay.
For test [3], the target named is T1, Alpha-mannosidase (Canavalia ensiformis) (UniProt C0HJB3).
T1 sequence (whole entry): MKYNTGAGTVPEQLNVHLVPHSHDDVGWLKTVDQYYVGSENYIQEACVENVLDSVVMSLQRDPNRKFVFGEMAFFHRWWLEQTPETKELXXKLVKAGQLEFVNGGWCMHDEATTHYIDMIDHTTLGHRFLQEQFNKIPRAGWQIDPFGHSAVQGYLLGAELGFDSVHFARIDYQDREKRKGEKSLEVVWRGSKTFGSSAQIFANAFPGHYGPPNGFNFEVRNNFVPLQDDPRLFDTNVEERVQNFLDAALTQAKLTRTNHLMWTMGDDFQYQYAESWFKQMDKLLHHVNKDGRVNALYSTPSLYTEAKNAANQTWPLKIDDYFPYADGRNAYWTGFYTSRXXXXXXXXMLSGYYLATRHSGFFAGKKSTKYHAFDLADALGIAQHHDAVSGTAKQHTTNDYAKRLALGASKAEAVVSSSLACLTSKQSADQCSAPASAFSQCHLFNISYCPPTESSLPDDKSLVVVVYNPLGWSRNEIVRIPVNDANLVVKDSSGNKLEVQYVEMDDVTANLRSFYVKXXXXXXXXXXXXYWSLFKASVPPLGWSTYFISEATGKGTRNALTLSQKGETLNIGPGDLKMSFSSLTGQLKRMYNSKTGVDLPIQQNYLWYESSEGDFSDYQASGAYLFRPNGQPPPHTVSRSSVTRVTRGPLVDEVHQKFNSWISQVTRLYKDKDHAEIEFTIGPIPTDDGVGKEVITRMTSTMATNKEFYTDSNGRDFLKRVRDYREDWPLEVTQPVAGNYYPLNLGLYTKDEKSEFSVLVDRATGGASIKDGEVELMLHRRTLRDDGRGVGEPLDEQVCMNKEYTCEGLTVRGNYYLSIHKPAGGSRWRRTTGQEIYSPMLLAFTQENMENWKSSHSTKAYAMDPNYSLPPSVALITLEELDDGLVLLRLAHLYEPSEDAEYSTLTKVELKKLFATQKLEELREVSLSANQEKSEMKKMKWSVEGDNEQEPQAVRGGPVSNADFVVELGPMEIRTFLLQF
The test can be described thus: Inhibition of jack beans alpha-mannosidase […] at 1 mM pre-incubated for 1 hr followed by […] substrate addition by fluorescence detection based assay.

Test [4] can be described thus: Inhibition of yeast alpha-glucosidase pre-incubated for 1 hr followed by p-nitrophenyl-alpha-D-glucopyranoside substrate addition by fluorescence detection based assay. More on the design: species or system Saccharomyces cerevisiae.
The test system of test [5] is Prunus dulcis. The test can be described thus: Inhibition of almond beta-glucosidase at 1 mM pre-incubated for 1 hr followed by p-nitrophenyl-beta-D-glucopyranoside, substrate addition by fluorescence detection based assay.
For test [6], the system named is Oryza sativa. The test can be described thus: Inhibition of rice alpha-glucosidase at 1 mM pre-incubated for 1 hr followed by p-nitrophenyl-alpha-D-glucopyranoside substrate addition by fluorescence detection based assay.
Test [7] is described as follows: Competitive inhibition of almond beta-glucosidase pre-incubated for 1 hr followed by p-nitrophenyl-beta-D-glucopyranoside, substrate addition by fluorescence detection based assay. Further details: species or system Prunus dulcis.
Test [8] can be described thus: Inhibition of rice alpha-glucosidase pre-incubated for 1 hr followed by p-nitrophenyl-alpha-D-glucopyranoside substrate addition by fluorescence detection based assay. More on the design: species or system Oryza sativa.
For test [9], the system named is Saccharomyces cerevisiae. As to the kind of experiment: Inhibition of yeast alpha-glucosidase at 1 mM pre-incubated for 1 hr followed by p-nitrophenyl-alpha-D-glucopyranoside substrate addition by fluorescence detection based assay.
Test [10] addresses T2, Alpha-galactosidase (Coffea arabica, UniProt Q42656). The test can be described thus: Inhibition of coffee beans alpha-galactosidase pre-incubated for 1 hr followed by p-nitrophenyl-alpha-D-galactopyranoside substrate addition by fluorescence detection based assay.
Test [11] concerns the target T2, Alpha-galactosidase. The test can be described thus: Competitive inhibition of coffee beans alpha-galactosidase pre-incubated for 1 hr followed by p-nitrophenyl-alpha-D-galactopyranoside substrate addition by fluorescence detection based assay.
Test [12] can be described thus: Competitive inhibition of Escherichia coli beta-galactosidase pre-incubated for 1 hr followed by p-nitrophenyl-beta-D-galactopyranoside substrate addition by fluorescence detection based assay.
Test [13] in a line: Inhibition of almond beta-glucosidase pre-incubated for 1 hr followed by p-nitrophenyl-beta-D-glucopyranoside, substrate addition by fluorescence detection based assay. Further details: species or system Prunus dulcis.

Chain of Alpha-galactosidase (Coffea arabica) (Q42656 16-378 limits assumed): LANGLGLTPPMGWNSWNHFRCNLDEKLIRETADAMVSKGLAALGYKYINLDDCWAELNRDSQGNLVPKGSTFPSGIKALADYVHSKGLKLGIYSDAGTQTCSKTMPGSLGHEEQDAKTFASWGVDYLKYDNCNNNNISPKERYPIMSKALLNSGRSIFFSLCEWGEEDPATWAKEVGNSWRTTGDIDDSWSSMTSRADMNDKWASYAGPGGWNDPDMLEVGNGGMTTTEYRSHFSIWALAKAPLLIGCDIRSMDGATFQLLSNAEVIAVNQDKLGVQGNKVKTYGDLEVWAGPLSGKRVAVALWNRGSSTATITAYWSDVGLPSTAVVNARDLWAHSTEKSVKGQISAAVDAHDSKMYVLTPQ
T2 sequence (Q42656 whole entry): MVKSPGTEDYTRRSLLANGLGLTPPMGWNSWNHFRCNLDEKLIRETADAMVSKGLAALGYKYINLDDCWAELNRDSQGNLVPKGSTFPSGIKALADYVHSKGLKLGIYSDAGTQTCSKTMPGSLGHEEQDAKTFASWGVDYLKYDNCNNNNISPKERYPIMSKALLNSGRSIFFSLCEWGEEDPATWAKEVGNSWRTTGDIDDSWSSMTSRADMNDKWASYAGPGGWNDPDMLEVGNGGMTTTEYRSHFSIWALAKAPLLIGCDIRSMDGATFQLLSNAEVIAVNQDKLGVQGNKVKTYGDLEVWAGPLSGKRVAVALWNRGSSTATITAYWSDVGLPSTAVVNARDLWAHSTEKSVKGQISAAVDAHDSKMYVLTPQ

In the case of `O=C(O)[C@]1(CO)NC[C@@H](O)[C@H]1O`, the inhibition entry in test [1], in test [2], in [3], in [5] and in test [6] was “inactive” in each case. In addition, the IC50 in test [4] was 763 µM. The Ki in test [4] was found to be 619 µM.
In the case of `OCC1(CO)NC[C@H](F)[C@H]1O`, the inhibition entry in test [1], in test [2], in test [3] and in [9] was “inactive” each time. Further, the 50% inhibitory concentration (IC50) in test [7] worked out at 0.184 µM; in [8], 463 µM. Also, the Ki in test [7] turned out to be 0.144 µM; in [8], 376 µM.
`OCCN1C[C@H](O)[C@@H](O)[C@H](O)[C@H]1CO` [MIGLITOL]: the inhibition entry in [1], in test [2], in test [3], in test [9] and in [5] was “inactive” throughout. The molecule further returned an IC50 in test [8] of 0.05 µM. The affinity in [8], expressed as Ki, was 0.028 µM.
Consider `O=C(O)[C@@]1(CO)NC[C@H](F)[C@H]1O`, for which the inhibition entry in test [1], in [3], in test [9], in test [5] and in test [6] was “inactive” each time. The molecule further came in with an IC50 in [10] of 392 µM. For the same molecule, in [10], affinity was put at a Ki of 364 µM.
Take `OCC1(CO)NC[C@@H](O)[C@H]1O`: the inhibition entry in test [1], in test [3], in test [9], in test [5] and in test [6] was “inactive” in each case. Moreover, the IC50 in [11] was 0.016 µM. The Ki in [11] came out at 0.008 µM.
Turning to `O=C(O)[C@]1(CO)NC[C@H](F)[C@H]1O`, the inhibition result in test [2], in test [3], in [9], in test [5] and in test [6] was “inactive” each time. Moreover, the half-inhibitory concentration (IC50) in [12] was 0.065 µM. Also, affinity in [12] was put at a Ki of 0.051 µM.
`O=C(O)[C@@]1(CO)NC[C@@H](O)[C@H]1O`: the inhibition entry in test [1], in [3], in test [9] and in [6] was “inactive” throughout. Besides, the IC50 is 0.079 µM in test [11] and 445 µM in test [13]. The Ki stood at 0.062 µM in test [11] and 349 µM in test [13].
